Experimental data published in patent publication US20250368645A1, “BETA CARBOLINE ANALOGUES AS SELECTIVE AND BIASED KAPPA OPIOID RECEPTORS AGONISTS FOR TREATING VARIOUS ASSOCIATED PATHOPHYSIOLOGICAL CONDITIONS” (COUNCIL OF SCIENTIFIC AND INDUSTRIAL RESEARCH, priority 2022, published 2025).

Columns and labels:
Type in all cases: cell-based
human KOR = human KOR (Homo sapiens, UniProt P41145); assay: GloSensor assay, Gi-mediated cAMP inhibition in HEK-293T cells transfected with human KOR; details: given as Log IC50 (negative values); agonist activity, inhibition of FSK-stimulated cAMP; read-out: GloSensor Assay (Log IC50) KOR (converted)
DOR = DOR (Homo sapiens, UniProt P41143); assay: GloSensor assay at DOR; details: given as Log IC50 (negative values)
MOR = MOR (Homo sapiens, UniProt P35372); assay: GloSensor assay at MOR; details: given as Log IC50 (negative values)
MOR, sequence (P35372 whole entry): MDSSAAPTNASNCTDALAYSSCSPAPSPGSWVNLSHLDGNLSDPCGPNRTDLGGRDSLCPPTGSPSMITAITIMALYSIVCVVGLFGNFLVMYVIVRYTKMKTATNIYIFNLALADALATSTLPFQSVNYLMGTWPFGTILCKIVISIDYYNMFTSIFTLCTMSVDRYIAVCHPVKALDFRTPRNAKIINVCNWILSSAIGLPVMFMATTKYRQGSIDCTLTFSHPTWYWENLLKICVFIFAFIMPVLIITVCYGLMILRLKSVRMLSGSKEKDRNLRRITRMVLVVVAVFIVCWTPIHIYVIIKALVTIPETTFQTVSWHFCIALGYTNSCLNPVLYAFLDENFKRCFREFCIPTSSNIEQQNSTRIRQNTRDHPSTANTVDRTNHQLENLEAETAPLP

DOR, sequence (P41143 whole entry): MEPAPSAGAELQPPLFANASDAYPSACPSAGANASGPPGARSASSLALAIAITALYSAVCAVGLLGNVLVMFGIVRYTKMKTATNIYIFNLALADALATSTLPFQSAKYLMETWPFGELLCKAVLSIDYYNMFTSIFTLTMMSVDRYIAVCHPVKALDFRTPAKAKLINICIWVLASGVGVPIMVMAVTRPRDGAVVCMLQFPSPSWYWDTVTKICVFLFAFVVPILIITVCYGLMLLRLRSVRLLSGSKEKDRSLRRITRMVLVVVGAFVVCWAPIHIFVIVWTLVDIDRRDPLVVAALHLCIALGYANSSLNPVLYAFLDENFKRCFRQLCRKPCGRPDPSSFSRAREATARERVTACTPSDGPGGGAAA
human KOR, sequence (P41145 whole entry): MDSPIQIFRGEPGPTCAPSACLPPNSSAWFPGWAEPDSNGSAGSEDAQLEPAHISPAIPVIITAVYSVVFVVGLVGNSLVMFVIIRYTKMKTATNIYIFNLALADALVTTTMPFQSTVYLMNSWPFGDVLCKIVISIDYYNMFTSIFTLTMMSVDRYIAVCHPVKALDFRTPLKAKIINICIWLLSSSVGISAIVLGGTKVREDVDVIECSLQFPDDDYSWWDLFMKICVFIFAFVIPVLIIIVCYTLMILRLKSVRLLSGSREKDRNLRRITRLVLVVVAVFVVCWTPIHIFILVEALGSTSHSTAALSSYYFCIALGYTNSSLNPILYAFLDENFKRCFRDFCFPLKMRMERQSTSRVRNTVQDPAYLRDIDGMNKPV

| Compound | IC50 (human KOR) | IC50 (DOR) | IC50 (MOR) |
| --- | --- | --- | --- |
| Clc1ccccc1-c1c2c3[nH]c4ccccc4c3cc[n+]2cn1-c1ccccc1 [8aea, 1-(2-Chlorophenyl)-2-phenyl-2,11-dihydroimidazo[1′,5′:1,2]pyrido[3,4-b]indol-4-ium chloride] | > 10 µM | > 10 µM | > 10 µM |
| Clc1cccc(-n2c[n+]3ccc4c5ccccc5[nH]c4c3c2-c2ccc(Br)cc2)c1 [8abf, 1-(4-Bromophenyl)-2-(3-chlorophenyl)-2,11-dihydroimidazo[1′,5′:1,2]pyrido[3,4-b]indol-4-ium chloride] | > 10 µM | > 10 µM | > 10 µM |
| COC(=O)c1cc2c3ccccc3[nH]c2c2c(-c3ccc(C)cc3)n(-c3ccc(F)cc3)c[n+]12 [8bkd, 2-(4-Fluorophenyl)-5-(methoxycarbonyl)-1-(p-tolyl)-2,11-dihydroimidazo[1′,5′:1,2]pyrido[3,4-b]indol-4-iumchloride] | > 10 µM | > 10 µM | > 10 µM |
| COC(=O)c1cc2c3ccccc3[nH]c2c2c(-c3ccc(Br)cc3)n(-c3ccc(Cl)cc3)c[n+]12 [8bbc, 1-(4-Bromophenyl)-2-(4-chlorophenyl)-5-(methoxycarbonyl)-2,11-dihydroimidazo[1′,5′:1,2]pyrido[3,4-b]indol-4-iumchloride] | > 10 µM | > 10 µM | > 10 µM |
| Brc1ccc(-c2c3c4[nH]c5ccccc5c4cc[n+]3cn2-c2ccccc2)cc1 [8aba, 1-(4-Bromophenyl)-2-phenyl-2,11-dihydroimidazo[1′,5′:1,2]pyrido[3,4-b]indol-4-ium chloride] | 0.0708 µM | > 10 µM | > 10 µM |
| Brc1ccc(-c2c3c4[nH]c5ccccc5c4cc[n+]3cn2-c2ccc(Br)cc2)cc1 [8abb, 1,2-Bis(4-bromophenyl)-2,11-dihydroimidazo[1′,5′:1,2]pyrido[3,4-b]indol-4-ium chloride] | > 10 µM | > 10 µM | > 10 µM |
| Clc1cccc(-n2c[n+]3ccc4c5ccccc5[nH]c4c3c2-c2ccccc2)c1 [8aaf, 2-(3-Chlorophenyl)-1-phenyl-2,11-dihydroimidazo[1′,5′:1,2]pyrido[3,4-b]indol-4-ium chloride] | > 10 µM | > 10 µM | > 10 µM |
| Fc1cccc(-n2c[n+]3ccc4c5ccccc5[nH]c4c3c2-c2ccccc2Br)c1 [8aci, 1-(2-Bromophenyl)-2-(3-fluorophenyl)-2,11-dihydroimidazo[1′,5′:1,2]pyrido[3,4-b]indol-4-ium] | 0.0631 µM | > 10 µM | > 10 µM |
| Fc1ccc(-c2c3c4[nH]c5ccccc5c4cc[n+]3cn2-c2ccc(Cl)cc2)cc1 [8agc, 2-(4-Chlorophenyl)-1-(4-fluorophenyl)-2,11-dihydrolmidazo[1′,5′:1,2]pyrido[3,4-b]indol-4-ium chloride] | > 10 µM | > 10 µM | > 10 µM |
| Clc1ccccc1-n1c[n+]2ccc3c4ccccc4[nH]c3c2c1-c1ccc(Br)cc1 [8abj, 1-(4-Bromophenyl)-2-(2-chlorophenyl)-2,11-dihydroimidazo[1′,5′:1,2]pyrido[3,4-b]indol-4-ium] | 0.251 µM | > 10 µM | 0.251 µM |
| Fc1ccc(-n2c[n+]3ccc4c5ccccc5[nH]c4c3c2-c2cccs2)cc1 [8and, 2-(4-Fluorophenyl)-1-(thiophen-2-yl)-2,11-dihydroimidazo[1′,5′:1,2]pyrido[3,4-b]indol-4-ium chloride] | 0.209 µM | > 10 µM | > 10 µM |
| Clc1ccc(-c2c3c4[nH]c5ccccc5c4cc[n+]3cn2-c2cccc(Cl)c2)cc1 [8adf, 2-(3-Chlorophenyl)-1-(4-chlorophenyl)-2,11-dihydroimidazo[1′,5′:1,2]pyrido[3,4-b]indol-4-ium chloride] | > 10 µM | > 10 µM | > 10 µM |
| Fc1ccc(-c2c3c4[nH]c5ccccc5c4cc[n+]3cn2-c2cccc(Cl)c2)cc1 [8agf, 2-(3-Chlorophenyl)-1-(4-fluorophenyl)-2,11-dihydroimidazo[1′,5′:1,2]pyrido[3,4-b]indol-4-ium chloride] | > 10 µM | > 10 µM | > 10 µM |

Further lines, results first:

| IC50 (human KOR) | IC50 (DOR) | IC50 (MOR) | Compound |
| --- | --- | --- | --- |
| > 10 µM | > 10 µM | > 10 µM | Clc1ccc(-n2c[n+]3c4ccccc4c4c5ccccc5[nH]c4c3c2-c2ccc(Br)cc2)cc1 [12bd, 1-(4-Bromophenyl)-2-(4-chlorophenyl)-2,13-dihydroimidazo[1,5-a]indolo[2,3-c]quinolin-4-ium chloride] |
| > 10 µM | > 10 µM | > 10 µM | CC(C)(C)c1ccc(Cn2c[n+]3ccc4c5ccccc5[nH]c4c3c2-c2ccc(Br)cc2)cc1 [9aac, 1-(4-Bromophenyl)-2-(4-(tert-butyl)benzyl)-2,11-dihydroimidazo[1′,5′:1,2]pyrido[3,4-b]indol-4-ium chloride] |
| > 10 µM | > 10 µM | > 10 µM | Fc1ccc(F)c(Cn2c[n+]3ccc4c5ccccc5[nH]c4c3c2-c2ccc(Br)cc2)c1 [9aaf] |
| 0.251 µM | – | – | Clc1ccc(-c2c3c4[nH]c5ccccc5c4c4ccccc4[n+]3cn2-c2ccc(Br)cc2)cc1 [12db, 2(4-Bromophenyl-1-(4-chlorophenyl)-2,13-dihydroimidazo[1,5-a]indolo[2,3-c]quinolin-4-ium chloride] |
| > 10 µM | > 10 µM | > 10 µM | Brc1ccc(-c2c3c4[nH]c5ccccc5c4cc[n+]3cn2Cc2ccccc2)cc1 [9aaa, 2-Benzyl-1-(4-bromophenyl)-2,11-dihydroimidazo[1′,5′:1,2]pyrido[3,4-b]indol-4-ium chloride] |
| > 10 µM | > 10 µM | > 10 µM | Clc1ccc(-c2c3c4[nH]c5ccccc5c4cc[n+]3cn2Cc2ccsc2)cc1 [9acj, 1-(4-Chlorophenyl)-2-(thiophen-3-ylmethyl)-2,11-dihydroimidazo[1′,5′:1,2]pyrido[3,4-b]indol-4-ium chloride] |
| 0.166 µM | > 10 µM | > 10 µM | COc1ccc(Cn2c[n+]3ccc4c5ccccc5[nH]c4c3c2-c2ccc(Br)cc2)cc1OC [9aag, 1-(4-Bromophenyl)-2-(3,4-dimethoxybenzyl)-2,11-dihydroimidazo[1′,5′:1,2]pyrido[3,4-b]indol-4-ium chloride] |
| > 10 µM | > 10 µM | > 10 µM | Fc1ccc(-n2c[n+]3c4ccccc4c4c5ccccc5[nH]c4c3c2-c2ccccc2)cc1 [12ad, 2-(4-Fluorophenyl)-1-phenyl-2,13-dihydroimidazo[1,5-a]indolo[2,3-c]quinolin-4-ium chloride] |
| > 10 µM | > 10 µM | > 10 µM | Cc1ccc(-c2c3c4[nH]c5ccccc5c4c4ccccc4[n+]3cn2-c2ccc(F)cc2)cc1 [12bc, 2-(4-Fluorophenyl)-1-(p-tolyl)-2,13-dihydrolmidazo[1,5-a]indolo[2,3-c]quinolin-4-ium chloride] |
| > 10 µM | > 10 µM | > 10 µM | Cn1c2ccccc2c2cc[n+]3cn(-c4ccc(F)cc4)c(-c4ccc(Br)cc4)c3c21 [8dbd, 1-(4-Bromophenyl)-2-(4-fluorophenyl)-11-methyl-2,11-dihydroimidazo[1′,5′:1,2]pyrido[3,4-b]indol-4-iumchloride] |
